Patent US9649373B2, “Neoseptins: small molecule adjuvants” (THE SCRIPPS RESEARCH INSTITUTE, priority 2013, dated 2017)

Tests used:
TLR4 [1] = target: T1, TLR4 (Mus musculus, UniProt Q9JHF9+Q9QUK6); test: Mouse peritoneal macrophage agonist assay (TNF-α ELISA); format: cell-based; design: used to inject mice intraperitoneally; endogenous in cells; host or cells: mouse peritoneal exudate cells (thioglycolate-elicited peritoneal macrophages); conditions: for EC50: read-out: EC50 of dose-response curves, TLR4 agonist activity; for TLR4 agonist efficacy: relative to neoseptin-1 or LPS
T1 sequence (Q9QUK6 26-835): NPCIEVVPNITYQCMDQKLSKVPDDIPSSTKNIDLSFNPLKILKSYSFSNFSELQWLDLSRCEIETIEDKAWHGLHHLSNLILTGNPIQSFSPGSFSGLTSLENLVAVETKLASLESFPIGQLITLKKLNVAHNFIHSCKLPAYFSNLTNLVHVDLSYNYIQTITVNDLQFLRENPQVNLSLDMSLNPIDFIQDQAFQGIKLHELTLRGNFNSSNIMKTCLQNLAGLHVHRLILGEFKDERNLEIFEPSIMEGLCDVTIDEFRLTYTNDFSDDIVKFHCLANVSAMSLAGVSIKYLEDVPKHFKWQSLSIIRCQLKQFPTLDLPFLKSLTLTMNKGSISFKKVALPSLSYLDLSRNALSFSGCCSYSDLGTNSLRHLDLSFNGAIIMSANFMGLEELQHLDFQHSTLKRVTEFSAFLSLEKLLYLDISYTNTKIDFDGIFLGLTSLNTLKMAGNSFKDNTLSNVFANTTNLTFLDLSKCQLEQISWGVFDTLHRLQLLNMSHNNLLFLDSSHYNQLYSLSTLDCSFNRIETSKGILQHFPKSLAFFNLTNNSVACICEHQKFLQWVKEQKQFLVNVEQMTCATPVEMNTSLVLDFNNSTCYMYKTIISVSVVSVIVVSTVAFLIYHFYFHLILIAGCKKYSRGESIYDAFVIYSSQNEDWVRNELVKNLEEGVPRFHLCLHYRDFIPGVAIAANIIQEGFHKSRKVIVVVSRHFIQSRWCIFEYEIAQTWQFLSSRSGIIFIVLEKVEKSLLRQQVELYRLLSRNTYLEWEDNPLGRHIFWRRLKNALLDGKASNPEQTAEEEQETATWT
T1 sequence (Q9JHF9 19-160): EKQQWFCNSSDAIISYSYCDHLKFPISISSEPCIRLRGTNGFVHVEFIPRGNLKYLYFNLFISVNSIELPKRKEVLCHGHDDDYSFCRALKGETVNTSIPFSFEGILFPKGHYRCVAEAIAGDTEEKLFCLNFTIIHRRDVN
Method: Mouse Peritoneal Macrophage Agonist Assay
Three to four days prior to PEC isolation, 3 mL syringes filled with Brewer's thioglycolate medium are used to inject mice intraperitoneally with 1.5-2 mL through a 25-gauge needle.
Immediately prior to isolation, mice are anaesthetized under isofluorane vapour (2-5% v/v, 2% O2).
5 mL syringes filled with sterile PBS are used to recover PECs by lavage through an 18-gauge needle. Once obtained, exudate is added to 5 mL of PEC recovery solution in a 15 mL conical tube, and stored on ice.
Tubes containing exudate are centrifuged for 3 minutes at 1200 rpm in a tabletop centrifuge, and supernatant is replaced with 1-4 mL of PEC medium. Pelleted cells are resuspended by pipeting, and a 10 μL aliquot is taken for cell enumeration.
The concentration of each cell sample is adjusted to 1×10^6 cells/mL using PEC medium, and 100 μL of each sample (1×10^5 cells) is added to a tissue culture-treated 96 well flat-bottomed plate, leaving two columns (11 & 12) unoccupied per plate. Plates are incubated at 37° C./5% CO2 in a humidified incubator for at least 1 hour to permit cells to adhere to the plate, during which time 125-03 solutions are prepared.
Following preincubation of PECs in the 96-well plate, non-adherent PECs are discarded along with residual medium, and 50 μM of compounds to be assayed are added to the cells. Plates are incubated for a further 4 hours.
Conditioned supernatant is collected into another 96 well plate and retained for TNF ELISA Assay. The cells are replaced with 100 μL/well of a 1:4 MTT solution:PEC medium solution (MTT 1 mg/mL final concentration). PEC plates are incubated at 37° C./5% CO2 overnight (about 18 hours). Supernatants are removed and 100 μL DMSO is added to each well. The plate is shaken for 10 minutes and read at 570 nm. This value is used to measure the cytotoxicity of the compounds.
Coat ELISA plate with 100 μL/well of capture antibody in Coating Buffer. Seal the plate and incubate overnight (about 18 hours) at 4° C.
Aspirate wells and wash 4× with 300 μL/well Wash Buffer. Blot plate on absorbent paper to remove residual buffer.
Dilute 1 part 5× concentrated Assay Diluent with 4 parts DI water. Block wells with 200 μL/well of 1× Assay Diluent. Incubate at room temperature for 1 hour or 4° C. overnight (about 18 hours).
Aspirate and wash at twice with Wash Buffer.
Using 1× Assay Diluent to perform 2-fold serial dilutions of the top standards to make the standard curve for a total of 8 points: 1000, 500, 250, 125, 62.5, 31.25, 15.625, 0 pg/ml. Add 100 μL/well of top standard concentration to the appropriate wells. Add 65 μL/well assay diluent plus 35 μL samples to the wells. Seal the plate and incubate at room temperature for 2 hours [or overnight (about 18 hours) at 4° C.]
Aspirate/wash 4 times with wash buffer.
Add 100 μL/well of detection antibody diluted in 1× Assay diluent. Seal the plate and incubate at room temperature for 1 hour.
Aspirate/wash. Repeat for a total of 4 washes.
Add 100 μL/well of Avidin-HRP diluted in 1× Assay diluent. Seal the plate and incubate at room temperature for 30 minutes.
Aspirate and wash. Repeat for a total of 5 washes.
Add 100 μL/well of Substrate Solution to each well. Incubate plate at room temperature for 2-3 minutes.
Add 50 μL/well of Stop Solution, and read plate at 450 nm.

[2] = system: type I interferon response; test: Type I interferon response, release of INF-β / INF-α (FIG. 2); format: cell-based
MD-2 = target: T2, MD-2 (UniProt Q9JHF9); test: Isothermal titration calorimetry binding to MD-2
T2 sequence (Q9JHF9 1-160): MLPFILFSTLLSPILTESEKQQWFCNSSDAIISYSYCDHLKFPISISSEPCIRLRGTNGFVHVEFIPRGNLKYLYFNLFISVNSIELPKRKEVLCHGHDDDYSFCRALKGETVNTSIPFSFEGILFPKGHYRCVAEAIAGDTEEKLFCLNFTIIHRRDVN

[3] = system: NF-κB, P38 MAPK, JNK, and Erk signaling pathways; test: Activation of signaling pathways; format: cell-based
From the text: (§1) See, (a) mutagenetix.utsouthwestern.edu.; (b) Arnold et al., (2012) ENU-induced phenovariance in mice: Inferences from 587 mutations. BMC Res. Notes. 5, 577-0500-5-577.

[4] = Overt toxicity on in vivo administration as adjuvant; conditions: at the maximum doses capable of administration
From the text: Thus, a contemplated Compound of Formula I acts as an agonist at the TLR4 receptor in that it binds to the TLR4 receptor of a cell and triggers a response by that cell, thereby mimicking the action of LPS, without the toxic result from using LPS as an adjuvant.
It is remarkable that such a small molecule can display such exquisite structural selectivity for activating the immune response and to do so in a way that is so mechanistically specific and well-defined. {See, (a) Vogel Clin. Infect. Dis. 30 (Suppl 3):S266-S270 (2000); (b) Guy, Nat. Rev. Microbiol. 5:505-517 (2007); (c) Johnson, Curr. Top. Med. Chem. 8:64-79 (2008); and (d) Persing et al., Trends Microbiol. 10:S32-S37 (2002) and the citations therein for the procedures utilized.]

C57BL/6J mice = test: In vivo adjuvant effect, intramuscular co-injection with ovalbumin, serum OVA-specific IgG ELISA; design: species or system mouse
Method: FIG. 3, in two panels as FIG. 3A and FIG. 3B, are graphs that illustrate ELIZA results for the adjuvant effect of neoseptin-3. In FIG. 3A, adjuvants were mixed with ovalbumin (OVA, 100 μg) and injected intramuscularly into C57BL/6J mice at the indicated doses. Two immunizations were administered with a booster given at 7 days. In FIG. 3B, LPS (0.2 mg/kg), neoseptin-3 (250 mg/kg) or monophosphoryl lipid A from Salmonella minnesota R595 (MPLA) (0.2 mg/kg) were mixed with ovalbumin (OVA, 0, 1, 10, and 100 μg) Serum levels of OVA-specific IgG were measured (ELISA) on indicated days post-immunization.
FIG. 9 is a graph similar to FIG. 3 showing anti-olvalbumin titers at 14 days post immunization using adjuvants with ovalbumin (OVA, 100 μg) and injected intramuscularly into C57BL/6J mice. The adjuvants used were neoseptin-3, LPS, MPLA, and alum in the amounts shown.
It is remarkable that such a small molecule can display such exquisite structural selectivity for activating the immune response and to do so in a way that is so mechanistically specific and well-defined. {See, (a) Vogel Clin. Infect. Dis. 30 (Suppl 3):S266-S270 (2000); (b) Guy, Nat. Rev. Microbiol. 5:505-517 (2007); (c) Johnson, Curr. Top. Med. Chem. 8:64-79 (2008); and (d) Persing et al., Trends Microbiol. 10:S32-S37 (2002) and the citations therein for the procedures utilized.] […]

TLR4 [5] = target: T1, TLR4; test: TNF-α production in macrophages from mice with disabling germline mutations or knockouts of TLRs and downstream signaling proteins; format: cell-based; design: normalized TNF-α production in macrophages from mice; endogenous in cells; host or cells: macrophages from wild-type and mutant/knockout mice; conditions: for Genes on which induced TNF-α production depends / mechanism of signaling: mutant or knockout mouse macrophages, 5 ng/ml LPS or 50 mM neoseptin-3 (FIG. 1)
Method: FIG. 1 in two parts as FIG. 1A and FIG. 1B are bar graphs that illustrate an assay of normalized TNF-α production in macrophages from mice containing disabling germline mutations or knockouts of genes encoding TLRs and downstream signaling proteins using 5 ng/ml of LPS or […] neoseptin-3.
as §1

With CC(C)(C)OC(=O)[C@H](CCc1ccccc1)NC(=O)c1ccc(N)c(OCCc2ccc(O)cc2)c1 [neoseptin-4] the EC50 (TLR4 [1]) was 15 to 25 µM and the TLR4 agonist efficacy (TLR4 [1]) was “nearly matching the efficacy of LPS”.
With CC(C)(C)OC(=O)[C@H](CCc1ccccc1)NC(=O)c1ccc(N)c(CCc2ccc(O)cc2)c1 [neoseptin-3] the “Release of INF-β (type I interferon response) compared with LPS” value [2] was “much more effectively stimulates a type I interferon response resulting in the release of INF-β”, the “Affinity for MD-2 relative to MPLA” value (MD-2; ITC direct binding) was “slightly better than that of MPLA itself” and the Kd (MD-2; ITC, 20 μM neoseptin-3 with 350 μM MD-2) was 11.7 µM. The “Activation of signaling pathways” value [3] was “activate the NF-κB, P38 MAPK, JNK, and Erk signaling pathways”, the EC50 (TLR4 [1]) was 15 to 25 µM and the TLR4 agonist efficacy (TLR4 [1]) was “nearly matching the efficacy of LPS”. The “Effect of antagonist eritoran on TLR4 agonist activity” value (TLR4 [1]; with eritoran) was “blocked by the antagonist eritoran”, the Overt toxicity [4] was “does not display the overt toxicity” and the “In vivo adjuvant immune response compared with LPS” value (C57BL/6J mice; co-injected with ovalbumin, intramuscular (FIG. 3)) was “more sustained immune response of equal or greater efficacy than LPS”. The “In vivo adjuvant immune response compared with alum” value (C57BL/6J mice; ovalbumin 100 μg i.m., 14 days post immunization (FIG. 9)) was “much more robust immune response in vivo than does alum”, the “Genes on which induced TNF-α production depends / mechanism of signaling” value (TLR4 [5]) was “dependent on TLR4, MD-2, MyD88, Trif, TRAM, MAL, IRAK4, and IKBKG” and the “CD14 dependence of induced TNF-α production” value (TLR4 [5]; unlike LPS) was “independent of CD14”.
In the case of N[C@@H](Cc1ccccc1)C(=O)Nc1ccc(C(=O)N[C@@H](CCc2ccccc2)C(=O)O)cc1OCCc1ccc(O)cc1 [neoseptin-1], the “Genes on which induced TNF-α production depends / mechanism of signaling” value (TLR4 [5]) is reported as “established to be TLR4”.
With N[C@@H](Cc1ccccc1)C(=O)Nc1ccc(C(=O)N[C@@H](CCc2ccccc2)C(=O)O)cc1CCc1ccc(O)cc1 [MM-1-88] the TLR4 agonist efficacy (TLR4 [1]) was “significant enhancement in TLR4 agonist efficacy”.
